According to PMC6437697 (Journal of Medicinal Chemistry, 2019):

What was measured:
Experiment in all cases: KINOMEscan
Assay type in all cases: binding
Details in all cases: read-out: % control activity remaining
[1] = target: T1, ANKK1 (Homo sapiens, UniProt Q8NFD2)
T1 construct: purchased Eurofins DiscoverX KINOMEscan
T1 sequence (Q8NFD2 1-765): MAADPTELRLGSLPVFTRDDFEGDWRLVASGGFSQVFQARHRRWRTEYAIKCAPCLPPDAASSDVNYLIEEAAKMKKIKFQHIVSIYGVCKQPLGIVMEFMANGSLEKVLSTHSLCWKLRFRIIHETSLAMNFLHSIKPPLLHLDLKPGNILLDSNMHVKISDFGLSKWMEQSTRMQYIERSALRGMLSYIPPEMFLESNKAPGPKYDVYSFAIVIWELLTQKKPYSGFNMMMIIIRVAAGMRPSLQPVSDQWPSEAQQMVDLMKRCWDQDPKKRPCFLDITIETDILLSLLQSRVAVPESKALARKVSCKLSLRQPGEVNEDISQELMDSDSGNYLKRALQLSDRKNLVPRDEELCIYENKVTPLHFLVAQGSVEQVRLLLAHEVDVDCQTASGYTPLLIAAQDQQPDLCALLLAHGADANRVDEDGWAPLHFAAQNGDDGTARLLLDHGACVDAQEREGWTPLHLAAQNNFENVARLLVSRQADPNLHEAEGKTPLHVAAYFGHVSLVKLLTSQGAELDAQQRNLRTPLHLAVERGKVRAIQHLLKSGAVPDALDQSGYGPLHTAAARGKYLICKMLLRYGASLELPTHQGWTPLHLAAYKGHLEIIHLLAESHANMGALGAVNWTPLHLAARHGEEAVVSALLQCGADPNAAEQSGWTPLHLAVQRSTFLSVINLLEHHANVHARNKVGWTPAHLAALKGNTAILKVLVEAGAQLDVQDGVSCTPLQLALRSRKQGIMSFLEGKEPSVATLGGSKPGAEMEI

[2] = target: T2, MST1R (Homo sapiens, UniProt Q04912)
T2 construct: purchased Eurofins DiscoverX KINOMEscan

[3] = target: T3, EGFR(L747-S752del, P753S) (Homo sapiens, UniProt P00533, DEL747-752/P753S)
T3 construct: purchased Eurofins DiscoverX KINOMEscan

[4] = target: T4, CAMK1D (Homo sapiens, UniProt Q8IU85)
T4 construct: purchased Eurofins DiscoverX KINOMEscan

[5] = target: T5, STK36 (Homo sapiens, UniProt Q9NRP7)
T5 construct: purchased Eurofins DiscoverX KINOMEscan
T5 sequence (Q9NRP7 1-1315): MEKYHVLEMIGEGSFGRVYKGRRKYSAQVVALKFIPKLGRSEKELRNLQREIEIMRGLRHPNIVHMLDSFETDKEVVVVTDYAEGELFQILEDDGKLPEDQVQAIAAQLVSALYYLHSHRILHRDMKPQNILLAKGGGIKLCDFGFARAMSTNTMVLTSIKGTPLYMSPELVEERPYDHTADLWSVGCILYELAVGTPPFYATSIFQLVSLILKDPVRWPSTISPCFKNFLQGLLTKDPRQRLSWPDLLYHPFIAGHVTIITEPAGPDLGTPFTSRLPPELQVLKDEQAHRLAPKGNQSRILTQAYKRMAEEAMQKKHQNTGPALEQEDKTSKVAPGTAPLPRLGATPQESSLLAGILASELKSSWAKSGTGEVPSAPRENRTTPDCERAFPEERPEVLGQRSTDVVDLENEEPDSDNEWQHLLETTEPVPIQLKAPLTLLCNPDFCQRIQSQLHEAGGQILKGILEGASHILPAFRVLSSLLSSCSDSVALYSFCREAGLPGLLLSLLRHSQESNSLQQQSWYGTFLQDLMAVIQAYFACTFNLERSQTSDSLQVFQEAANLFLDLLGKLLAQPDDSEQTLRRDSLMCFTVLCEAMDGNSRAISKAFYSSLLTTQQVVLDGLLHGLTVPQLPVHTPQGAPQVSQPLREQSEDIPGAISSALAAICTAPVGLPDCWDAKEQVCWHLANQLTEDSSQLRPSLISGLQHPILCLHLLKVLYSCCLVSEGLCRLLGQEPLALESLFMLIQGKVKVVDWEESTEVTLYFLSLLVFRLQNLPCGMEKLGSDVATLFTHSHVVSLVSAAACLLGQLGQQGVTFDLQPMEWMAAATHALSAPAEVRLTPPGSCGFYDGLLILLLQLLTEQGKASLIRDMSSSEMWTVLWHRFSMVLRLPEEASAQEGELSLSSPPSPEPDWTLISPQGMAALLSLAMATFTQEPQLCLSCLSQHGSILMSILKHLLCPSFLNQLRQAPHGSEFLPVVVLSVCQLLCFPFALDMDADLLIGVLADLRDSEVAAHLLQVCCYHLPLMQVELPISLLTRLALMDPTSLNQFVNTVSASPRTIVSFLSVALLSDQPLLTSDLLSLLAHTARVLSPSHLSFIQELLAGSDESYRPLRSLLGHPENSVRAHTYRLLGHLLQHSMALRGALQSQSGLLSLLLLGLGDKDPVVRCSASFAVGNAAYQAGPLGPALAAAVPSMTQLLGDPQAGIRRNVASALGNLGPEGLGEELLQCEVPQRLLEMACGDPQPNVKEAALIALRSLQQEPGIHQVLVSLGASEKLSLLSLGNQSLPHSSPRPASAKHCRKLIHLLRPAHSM

[6] = target: T6, EGFR(T790M) (Homo sapiens, UniProt P00533, T790M)
T6 construct: purchased Eurofins DiscoverX KINOMEscan

[7] = target: T7, RIOK2 (Homo sapiens, UniProt Q9BVS4)
T7 construct: purchased Eurofins DiscoverX KINOMEscan
T7 sequence (Q9BVS4 whole entry): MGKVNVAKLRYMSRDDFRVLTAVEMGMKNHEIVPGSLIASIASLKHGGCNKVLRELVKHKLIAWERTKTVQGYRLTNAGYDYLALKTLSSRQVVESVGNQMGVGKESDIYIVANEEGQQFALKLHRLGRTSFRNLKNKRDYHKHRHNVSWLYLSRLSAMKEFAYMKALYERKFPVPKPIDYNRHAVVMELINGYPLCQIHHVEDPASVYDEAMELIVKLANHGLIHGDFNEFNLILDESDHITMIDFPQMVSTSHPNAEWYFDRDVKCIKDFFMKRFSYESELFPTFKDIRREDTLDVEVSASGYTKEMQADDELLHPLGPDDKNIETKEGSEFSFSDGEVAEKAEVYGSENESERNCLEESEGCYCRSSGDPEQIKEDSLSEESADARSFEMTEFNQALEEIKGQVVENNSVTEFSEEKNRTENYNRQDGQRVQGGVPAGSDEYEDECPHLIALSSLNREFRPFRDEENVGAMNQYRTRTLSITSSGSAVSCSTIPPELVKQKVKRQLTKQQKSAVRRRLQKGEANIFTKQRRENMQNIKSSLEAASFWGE

T4 sequence (Q8IU85 whole entry): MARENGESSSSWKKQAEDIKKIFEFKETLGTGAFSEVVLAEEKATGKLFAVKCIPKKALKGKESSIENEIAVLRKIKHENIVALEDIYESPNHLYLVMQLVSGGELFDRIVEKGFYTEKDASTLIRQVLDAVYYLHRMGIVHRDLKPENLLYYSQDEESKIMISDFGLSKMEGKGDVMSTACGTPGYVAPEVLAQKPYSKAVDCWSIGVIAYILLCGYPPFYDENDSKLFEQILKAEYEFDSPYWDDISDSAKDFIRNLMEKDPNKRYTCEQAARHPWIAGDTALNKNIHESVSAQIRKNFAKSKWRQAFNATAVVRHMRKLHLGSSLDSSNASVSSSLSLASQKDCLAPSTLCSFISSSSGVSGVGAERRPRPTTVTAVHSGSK
T3 sequence (P00533 with tags, fused parts or gaps DEL747-752/P753S limits assumed): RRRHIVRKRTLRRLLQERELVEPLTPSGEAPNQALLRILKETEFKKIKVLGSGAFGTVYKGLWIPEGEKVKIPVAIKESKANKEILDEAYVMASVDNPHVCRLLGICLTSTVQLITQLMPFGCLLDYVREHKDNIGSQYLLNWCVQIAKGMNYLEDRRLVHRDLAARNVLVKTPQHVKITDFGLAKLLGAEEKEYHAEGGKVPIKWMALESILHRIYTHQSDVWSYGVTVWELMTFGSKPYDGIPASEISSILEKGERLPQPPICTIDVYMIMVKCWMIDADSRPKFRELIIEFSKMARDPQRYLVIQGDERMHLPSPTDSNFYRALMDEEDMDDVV
T6 sequence (P00533 25-1210 T790M limits assumed): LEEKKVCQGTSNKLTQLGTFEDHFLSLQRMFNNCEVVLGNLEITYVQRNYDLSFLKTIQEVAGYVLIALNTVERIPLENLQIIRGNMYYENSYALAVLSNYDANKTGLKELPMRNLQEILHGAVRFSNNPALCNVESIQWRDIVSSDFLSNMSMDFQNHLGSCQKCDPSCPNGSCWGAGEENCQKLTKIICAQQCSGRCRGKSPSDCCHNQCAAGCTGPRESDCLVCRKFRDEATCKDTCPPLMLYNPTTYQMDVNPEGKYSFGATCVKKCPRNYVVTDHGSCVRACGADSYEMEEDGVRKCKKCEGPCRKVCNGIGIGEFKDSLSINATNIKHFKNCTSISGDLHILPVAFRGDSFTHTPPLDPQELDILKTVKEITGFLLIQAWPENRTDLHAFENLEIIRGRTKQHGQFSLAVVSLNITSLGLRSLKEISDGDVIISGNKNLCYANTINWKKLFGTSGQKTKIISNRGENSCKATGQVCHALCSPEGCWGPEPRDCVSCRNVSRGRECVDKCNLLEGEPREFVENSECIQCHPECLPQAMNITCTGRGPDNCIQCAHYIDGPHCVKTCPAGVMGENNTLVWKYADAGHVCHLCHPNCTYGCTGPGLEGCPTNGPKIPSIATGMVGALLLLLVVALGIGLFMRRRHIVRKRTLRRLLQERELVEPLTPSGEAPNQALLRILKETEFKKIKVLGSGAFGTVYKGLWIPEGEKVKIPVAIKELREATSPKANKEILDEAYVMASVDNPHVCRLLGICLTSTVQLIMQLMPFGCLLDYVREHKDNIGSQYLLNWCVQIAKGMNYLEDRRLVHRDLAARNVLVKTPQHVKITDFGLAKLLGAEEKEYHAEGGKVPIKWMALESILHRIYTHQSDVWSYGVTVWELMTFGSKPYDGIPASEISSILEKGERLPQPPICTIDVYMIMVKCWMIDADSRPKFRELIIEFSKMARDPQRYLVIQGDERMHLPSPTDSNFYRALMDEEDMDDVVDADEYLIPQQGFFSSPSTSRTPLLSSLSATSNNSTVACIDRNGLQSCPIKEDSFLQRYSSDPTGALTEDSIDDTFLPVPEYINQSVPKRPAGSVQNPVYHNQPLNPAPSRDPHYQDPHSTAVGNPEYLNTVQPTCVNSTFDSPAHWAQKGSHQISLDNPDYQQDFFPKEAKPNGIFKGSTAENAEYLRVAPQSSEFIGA
T2 sequence (Q04912 25-1400): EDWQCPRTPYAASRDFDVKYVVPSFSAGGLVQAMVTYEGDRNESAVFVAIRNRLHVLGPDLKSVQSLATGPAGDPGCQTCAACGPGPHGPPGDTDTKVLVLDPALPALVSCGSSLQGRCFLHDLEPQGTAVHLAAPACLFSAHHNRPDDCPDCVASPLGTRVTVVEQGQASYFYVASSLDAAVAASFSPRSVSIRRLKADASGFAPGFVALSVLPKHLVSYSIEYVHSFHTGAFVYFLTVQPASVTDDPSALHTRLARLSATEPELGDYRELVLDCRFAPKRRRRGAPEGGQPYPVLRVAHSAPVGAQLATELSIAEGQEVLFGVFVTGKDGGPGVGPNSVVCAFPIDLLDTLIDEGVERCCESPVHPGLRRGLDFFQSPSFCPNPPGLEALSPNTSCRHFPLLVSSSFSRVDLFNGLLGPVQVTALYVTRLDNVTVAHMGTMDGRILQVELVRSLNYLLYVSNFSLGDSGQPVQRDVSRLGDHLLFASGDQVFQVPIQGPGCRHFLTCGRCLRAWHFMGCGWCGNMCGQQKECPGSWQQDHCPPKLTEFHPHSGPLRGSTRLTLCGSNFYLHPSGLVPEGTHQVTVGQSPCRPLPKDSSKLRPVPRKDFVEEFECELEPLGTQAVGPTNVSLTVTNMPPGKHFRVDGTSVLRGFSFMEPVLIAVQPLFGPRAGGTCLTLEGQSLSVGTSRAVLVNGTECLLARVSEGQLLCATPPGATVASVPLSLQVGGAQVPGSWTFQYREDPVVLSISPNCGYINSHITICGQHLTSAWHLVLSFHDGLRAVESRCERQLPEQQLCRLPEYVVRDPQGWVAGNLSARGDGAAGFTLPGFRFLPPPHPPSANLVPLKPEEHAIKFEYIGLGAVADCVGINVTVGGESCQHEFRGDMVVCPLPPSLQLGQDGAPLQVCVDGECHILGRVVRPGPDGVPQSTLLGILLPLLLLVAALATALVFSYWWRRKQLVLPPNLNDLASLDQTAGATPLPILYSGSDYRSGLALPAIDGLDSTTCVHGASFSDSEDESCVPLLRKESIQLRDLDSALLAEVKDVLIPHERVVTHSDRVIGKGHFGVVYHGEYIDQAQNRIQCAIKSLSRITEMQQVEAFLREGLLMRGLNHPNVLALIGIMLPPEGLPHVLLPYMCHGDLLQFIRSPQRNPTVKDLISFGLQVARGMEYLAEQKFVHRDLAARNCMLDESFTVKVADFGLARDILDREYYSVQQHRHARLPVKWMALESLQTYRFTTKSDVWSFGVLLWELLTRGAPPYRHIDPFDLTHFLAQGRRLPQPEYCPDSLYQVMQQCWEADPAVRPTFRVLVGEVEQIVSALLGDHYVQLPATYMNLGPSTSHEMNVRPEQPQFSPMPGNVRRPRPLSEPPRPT

Row | SMILES | remaining binding at 1 µM [1] [%] | remaining binding at 1 µM [2] [%] | remaining binding at 1 µM [3] [%] | remaining binding at 1 µM [4] [%] | remaining binding at 1 µM [5] [%] | remaining binding at 1 µM [6] [%] | remaining binding at 1 µM [7] [%]
1 | Clc1cc(NCC2CC2)c2ncc(-c3ccc4[nH]ncc4c3)n2n1 [compound 2, 6-Chloro-N-(cyclopropylmethyl)-3-(1H-indazol-5-yl)imidazo[1,2-b]pyridazin-8-amine] | 75 | 99 | 89 | 100 | 91 | 92 | 70
2 | O=C(CN1CCOCC1)N[C@H]1CC[C@H](Nc2cc(Cl)nn3c(-c4ccc5[nH]ncc5c4)cnc23)CC1 [compound 26] | 48 | 64 | 81 | 71 | 95 | 100 | 67
3 | CN1CCC(CNc2cc(Cl)nn3c(-c4cc5nc(Nc6ccccc6)[nH]c5cc4F)cnc23)CC1 [compound 31, 6-Chloro-3-(6-fluoro-2-(phenylamino)-1H-benzo[d]imidazol-5-yl)-N-((1-methylpiperidin-4-yl)methyl)imidazo[1,2-b]pyridazin-8-amine] | 100 | 77 | 100 | 85 | 93 | 100 | 61
